Assay results taken from patent publication US20100256357A1, “HETEROCYCLES USEFUL AS INHIBITORS OF CARBONIC ANHYDRASE” (Agouron Pharmaceuticals, Inc., priority 2006, published 2010).
Like-named read-outs stand apart in the source and are kept apart here. Each block holds one compound with its values, some of them ahead of it.

Experiments:
human CA-IX = target: T1, human CA-IX (Homo sapiens, UniProt Q16790); experiment: Carbonic Anhydrase-IX (CA-IX) Fluorescence Polarization Assay-IC50 Determination; assay type: binding; conditions: read-out: CAIX IC50
T1 construct: purchased R&D Systems Inc. 2188-CA-010
Description: Carbonic Anhydrase-IX (CA-IX) Fluorescence Polarization Assay-IC50 Determination
Compounds were diluted in DMSO at the concentration of 1 mM, then 50 μM and transferred to a 96-well plate for further dilutions (1:3 dilution, 11 points) in duplicate. Final compound highest concentration in CA-IX FP assay is 1 μM. Assays were conducted in a final volume of 100 μL in 50 mM Tris/HCl (pH 7.6), 100 mM Na2SO4 and 0.005% Tween-20 in a 96-well black assay. plate. […] was used as the tracer. Binding inhibition was determined by pipetting 8 μL of human CA-IX (8 nM, R&D Systems Inc. Cat#2188-CA-010) into assay plate contained 2 μL of compound and 2 μL of tracer (2 nM) in 88 μL of assay buffer. The assay plate was incubated at room temperature for 30 minutes and read in the fluorescence polarization reader (Molecular Devices, Analyst) at 524/45 nm (excitation), 595/60 nm (emission) and 561 nm (bean splitter). […] GraphPad Prism or similar in-house software with the IC50 curve fitting using the four parameter logistic equation.

human CA-II [1] = target: T2, human CA-II (Homo sapiens, UniProt P00918); experiment: Carbonic Anhydrase-II (CA-II) Fluorescence Polarization Tight Binding Assay-Kd Determination
T2 construct: purchased Sigma-Aldrich C6165
Description: Assays were conducted in a final volume of 100 μL in 50 mM Tris/HCl (pH 7.6), 100 mM Na2SO4 and 0.005% Tween-20 in a 96-well black assay plate. […] The assay plate was
The Kd binding was calculated using GraphPad Prism and Morrison tight binding ligand equation.

human CA-IV = target: T3, human CA-IV (Homo sapiens, UniProt P22748); experiment: Carbonic Anhydrase-IV (CA-IV) Fluorescence Polarization Assay-IC50 Determination; assay type: binding
T3 construct: made in house; host or cells: Escherichia coli BL21(DE3)
Summary of the method: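 Recombinant CA-IV expressed with 800 uM ZnCl2, purified by SP-Sepharose and Sephacryl S-100 in 25 mM Tris-HCl pH 7.0, 100 mM NaCl, concentrated to 7.0 mg/mL. IC50 by fluorescence polarization.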

CAI = CAI (Homo sapiens, UniProt P00915); experiment: CAI IC50 (no method described); assay type: biochemical
human CA-II [2] = target: T2, human CA-II; experiment: Carbonic Anhydrase-II (CA-II) Fluorimetric Assay-IC50 Determination; assay type: biochemical
Summary of the method: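 Compounds were tested as an 11-point, 1:3 dilution series in duplicate, with a top final concentration of 1 μM, in 50 mM Tris/HCl pH 7.6, 100 mM Na2SO4 and 0.005% Tween-20. Human CA-II activity was followed as the rate of fluorescein diacetate hydrolysis at 25° C, with excitation at 488 nm and emission at 538 nm.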

Sequence of CAI (P00915 whole entry, species assumed): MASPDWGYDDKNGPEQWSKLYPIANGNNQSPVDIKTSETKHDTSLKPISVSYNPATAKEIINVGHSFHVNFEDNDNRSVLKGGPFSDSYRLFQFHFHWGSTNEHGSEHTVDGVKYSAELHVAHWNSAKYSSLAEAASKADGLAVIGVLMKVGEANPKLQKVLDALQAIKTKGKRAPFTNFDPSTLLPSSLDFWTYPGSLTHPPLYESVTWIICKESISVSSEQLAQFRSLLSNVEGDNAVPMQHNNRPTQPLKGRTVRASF
T3 sequence (P22748 19-284 limits assumed): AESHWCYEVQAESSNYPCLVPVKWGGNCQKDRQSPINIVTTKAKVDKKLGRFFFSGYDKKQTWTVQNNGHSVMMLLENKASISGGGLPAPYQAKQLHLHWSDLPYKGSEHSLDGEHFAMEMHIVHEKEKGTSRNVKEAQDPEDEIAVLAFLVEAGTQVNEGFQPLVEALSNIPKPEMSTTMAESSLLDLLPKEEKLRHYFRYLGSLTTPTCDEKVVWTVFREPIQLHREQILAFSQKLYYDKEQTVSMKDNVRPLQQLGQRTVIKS

SMILES: CN(Cc1cc(Cc2ccc(Cl)cc2)n(-c2ccc(S(N)(=O)=O)cc2)n1)C1CCCCC1 [QQ-10]
IC50 (human CA-IX): 5.18 nM

SMILES: CC(C)OC(=O)c1nc(Cc2ccccc2)n(-c2ccc(S(N)(=O)=O)cc2)n1 [Example P-1, Isopropyl 1-[4-(aminosulfonyl)phenyl]-5-benzyl-1H-1,2,4-triazole-3-carboxylate]
Kd (human CA-II [1]; read-out: Kd_CAII): 0.15 nM
IC50 (human CA-IV; read-out: IC50_CAIV): 486 nM
IC50 (CAI): 41 nM

SMILES: CN(CCc1ccccc1)C(=O)c1nc(Cc2ccccc2)n(-c2ccc(S(N)(=O)=O)cc2F)n1 [Example A-1d, 1-[4-(aminosulfonyl)-2-fluorophenyl]-5-benzyl-N-methyl-N-(2-phenylethyl)-1H-1,2,4-triazole-3-carboxamide]
IC50 (human CA-IX): 2.94 nM

SMILES: CN(CCN1CCOCC1)C(=O)c1nc(Cc2ccccc2)n(-c2ccc(S(N)(=O)=O)cc2F)n1 [Example A-1k, 1-[4-(aminosulfonyl)-2-fluorophenyl]-5-benzyl-N-methyl-N-(2-morpholin-4-ylethyl)-1H-1,2,4-triazole-3-carboxamide]
Kd (human CA-II [1]; read-out: Kd_CAII): 0.22 nM
IC50 (human CA-IV; read-out: IC50_CAIV): 148 nM
IC50 (CAI): 23 nM

SMILES: NS(=O)(=O)c1ccc(-n2nc(CN3CC=CCC3)nc2Cc2cccc(Br)c2)cc1 [Example F-1z, 4-[5-(3-bromobenzyl)-3-(3,6-dihydropyridin-1(2H)-ylmethyl)-1H-1,2,4-triazol-1-yl]benzenesulfonamide]
IC50 (human CA-IX): 7.99 nM

SMILES: NS(=O)(=O)c1ccc(-n2nc(CO)cc2Cc2ccc(Cl)cc2)cc1 [qq-3a, 4-[5-(4-chlorobenzyl)-3-(hydroxymethyl)-1H-pyrazol-1-yl]benzenesulfonamide]
IC50 (human CA-IV; read-out: IC50_CAIV): 284 nM
IC50 (human CA-IX): 13.5 nM

SMILES: CN(CCc1ccccc1)Cc1cn(Cc2ccccc2F)c(-c2ccc(S(N)(=O)=O)cc2)n1 [CCC-1a, 4-(1-(2-fluorobenzyl)-4-{[methyl(2-phenylethyl)amino]methyl}-1H-imidazol-2-yl)benzenesulfonamide]
IC50 (human CA-IX): 39.3 nM

SMILES: C[C@@H]1CN(Cc2nc(Cc3ccccc3)n(-c3ccc(S(N)(=O)=O)cc3F)n2)C[C@H](C)O1 [Example F-1, 4-(5-Benzyl-3-{[2,6-cis-dimethylmorpholin-4-yl]methyl}-1H-1,2,4-triazol-1-yl)-3-fluorobenzenesulfonamide]
IC50 (human CA-IX): 26.1 nM

SMILES: COC[C@H](C)NC(=O)c1nc(Cc2ccccc2)n(-c2ccc(S(N)(=O)=O)cc2)n1 [Example R-21, 1-[4-(aminosulfonyl)phenyl]-5-benzyl-N-[(1S)-2-methoxy-1-methylethyl]-1H-124-triazole-3-carboxamide]
inhibition at 0.1 µM (human CA-II [2]; CA II Min dose 100 nM, read-out: CAII % Inh @ Min dose): 100%
Kd (human CA-II [1]; read-out: CA-II Kd): 0.09 nM
inhibition at 0.2 µM (human CA-IV; CA-IV Min dose 200 nM, read-out: CA-IV: % Inh @ Min dose): 53.6%
IC50 (human CA-IV; read-out: CA-IV IC50): 356 nM
IC50 (human CA-IX): 53.3 nM

SMILES: CN(C)[C@H]1CCN(C(=O)c2nc(Cc3ccccc3)n(-c3ccc(S(N)(=O)=O)cc3F)n2)C1 [Example A-1m, 4-(5-benzyl-3-{[(3S)-3-(dimethylamino)pyrrolidin-1-yl]carbonyl}-1H-1,2,4-triazol-1-yl)-3-fluorobenzenesulfonamide]
Kd (human CA-II [1]; read-out: Kd_CAII): 0.2 nM
IC50 (human CA-IV; read-out: IC50_CAIV): 429 nM
IC50 (CAI): 21 nM

SMILES: NS(=O)(=O)c1ccc(-n2ncnc2Cc2ccccc2)cc1 [Example L-1a, 4-(5-benzyl-1H-1,2,4-triazol-1-yl)benzenesulfonamide]
IC50 (human CA-IX): 35.6 nM

SMILES: CN(Cc1nc(Cc2ccccc2)n(-c2ccc(S(N)(=O)=O)cc2F)n1)C1CCCCC1 [Example F-1aq, 4-(5-benzyl-3-{[cyclohexyl(methyl)amino]methyl}-1H-1,2,4-triazol-1-yl)-3-fluorobenzenesulfonamide]
IC50 (human CA-IX): 9.41 nM

Further lines, results first:

IC50 (human CA-IX): 8.11 nM
SMILES: COCc1nc(Cc2cccc(Br)c2)n(-c2ccc(S(N)(=O)=O)cc2)n1 [f-3g, 4-[5-(3-bromobenzyl)-3-(methoxymethyl)-1H-1,2,4-triazol-1-yl]benzenesulfonamide]

% printed in column IC50—CAII (human CA-II [2]; 69 0.010 nM (so in the source)): 0% 69 0.010 nM
% printed in column IC50_CAIV (human CA-IV; @ 5 uM): 51% @ 5 uM
IC50 (CAI): 4610 nM
SMILES: Cc1cccc(Cc2nc(C)nn2-c2ccc(S(N)(=O)=O)c(F)c2F)c1 [Example Q-1, 2,3-Difluoro-4-[3-methyl-5-(3-methylbenzyl)-1H-1,2,4-triazol-1-yl]benzenesulfonamide]

IC50 (human CA-IX): 2.79 nM
SMILES: CCCCN(C)C(=O)c1nc(Cc2ccccc2)n(-c2ccc(S(N)(=O)=O)cc2F)n1

IC50 (human CA-IX): 9.01 nM
SMILES: CCCCN(C)Cc1nc(Cc2ccccc2)n(-c2ccc(S(N)(=O)=O)cc2F)n1 [Example G-1b, 4-(5-benzyl-3-{[butyl(methyl)amino]methyl}-1H-1,2,4-triazol-1-yl)-3-fluorobenzenesulfonamide]

IC50 (human CA-IX): 36.9 nM
SMILES: Cc1nc(Cc2cccc(F)c2)n(-c2ccc(S(N)(=O)=O)cc2)n1 [f-3a, 4-[5-(3-fluorobenzyl)-3-methyl-1H-1,2,4-triazol-1-yl]benzenesulfonamide]

IC50 (human CA-IX): 3.83 nM
SMILES: Cc1cccc(Cc2nc(CN(C)C3CCCC3)nn2-c2ccc(S(N)(=O)=O)cc2F)c1 [Example F-1ak]

IC50 (human CA-IX): 4.32 nM
SMILES: CCCN(C)Cc1nc(Cc2cccc(C)c2)n(-c2ccc(S(N)(=O)=O)cc2F)n1 [Example F-1aj, 3-fluoro-4-[5-(3-methylbenzyl)-3-{[methyl(propyl)amino]methyl}-1H-1,2,4-triazol-1-yl]benzenesulfonamide]
